# Test results as given in patent publication US5321037A, “Isoxazole derivatives for use as cerebro-active drugs and central muscle relaxants” (Sankyo Company, Limited, priority 1986, dated 1994).
# Counter-ions that a name gives are not always drawn. Like-named read-outs stand apart in the source and are kept apart here.
# Experiments:
# thiopental anesthesia = assay: Potentiation of thiopental anesthesia (mice); format: in vivo, mouse (ddY strain); details: for Anesthesia time: thiopental 30 mg/kg after one hour
# Protocol: In the test method, male adult mice of ddY strain each weighing 20 to 30 g were used as divided groups each made up of 5 to 7 mice. Test compounds suspended in 0.5% CMC solution were orally administered. After one hour, thiopental (30 mg/kg) was injected into the tail vein, and the time required for the mouse to recover the righting reflex was measured.
# [1] = system: decerebrate rigidity (cats); assay: Suppression of decerebrate rigidity (cats); format: in vivo, cat
# Source text: Adult cats each weight 3.0 to 4.5 kg were used. Under ether anesthesia, the trachea was cannulated and the common carotid arteries were ligated at both sides. The cat was decerebrated by suction at the precollicular level. Ether anesthesia was then immediately discontinued. A pair of needle electrodes was inserted into the neck muscle in order to pick up any EMG muscular discharges. The EMG discharge was amplified and recorded on a pen-writing recorder, along with an integration of the EMG discharge. Recording was started at least 2 hours after withdrawal of anesthesia. Blood pressure induced from the femoral artery, as well as body temperature and heart beat, were recorded and monitored throughout the experiment.
# After stable EMG discharges were obtained, the test compounds suspended in 0.5% CMC solution were administered into the duodenum through a previously inserted cannula. The effect of the test compound was expressed as the ratio of the integrated EMG discharge after administration relative to the value before administration.
# spinal reflex in cats = assay: Effect on spinal reflex in cats; format: in vivo, cat; details: for Mechanism shown by spinal reflexes: in vivo
# Protocol: Adult cats weighing 3.0 to 4.5 kg each were used. After induction of anesthesia with ether, the animal was anesthetized by intravenous injection of 50 mg/kg of a-chloralose. After the trachea was cannulated, the animal was fixed on a stereotaxic apparatus, and the lumbosacral spinal cord was exposed by laminectomy from L3 to S1. The ventral roots of the right side were cut from L6 to S1 as distal as possible and the cut ends were ligated with cotton thread previously immersed in Ringer's solution. The exposed spinal cord was covered with warmed mineral oil and maintained at 37° C. The ventral root, either L7 or S1, was fixed on a pair of platinum wire electrodes. A pair of collar-type electrodes was implanted on the ipsilateral tibial nerve and the saphenous nerve, for stimulation. After completion of all these operations, the cat was immobilized with pancronium bromide (0.5 mg/kg, i.v.) and maintained by artificial respiration (40/minute). Recording was started at least 2 hours after withdrawal of ether anesthesia. A single square pulse (0.01 to 0.1 msecond pulse width, supramaximal intensity) was applied to the nerve at a frequency of 0.3 Hz from an electronic stimulator. […] In a similar manner to Experiment 2, the blood pressure, heart beat and body temperature of the animal were recorded and monitored. Compounds to be tested were also administered in a similar manner.
# [2] = system: ischemia-induced neurological symptoms in SHR SP; assay: Improvement in ischemia-induced neurological symptoms in Spontaneously Hypertensive Rats Stroke Prone (SHR SP) caused by ligation of the bilateral common carotid arteries; format: in vivo, rat (SHR SP); details: 100 mg/kg
# Protocol: The test animals employed were male adult SHR SPs (13 or 15 weeks old). They were used in groups each consisting of about 10 animals. Under halothane anesthesia, both common carotid arteries of each animal were ligated to prepare a brain ischemia model. The halothane anesthesia was stopped immediately after the ligation, and then the time taken to recover the righting reflex, the onset time of convulsions and the survival time were determined. The test solution was prepared in the same manner as described in Experiment 1 and was administered to the animal intraperitoneally 30 minutes before the ligation. A 0.5% CMC solution was administered to the control group in the same manner. The statistical analysis was carried out in a similar manner to that in Experiment 1. The statistical analysis of the survival rate was carried out by the X^2 test.
# [3] = system: decerebrate rigidity in rats; assay: Suppression of decerebrate rigidity in rats; format: in vivo, rat
# Source text: The suppression of decerebrate rigidity in laboratory animals, such as rats, is a well known model for control of human spasticity and/or rigidity.
# In the test method, a rat was anesthetized with halothane and fixed on a stereotaxic apparatus (SR-5, Narishige). In accordance with the brain atlas by Pellegrino et al., [L. J. Pellegrino, A. S. Pellegrino & A. J. Cushman: A Stereotaxic Atlas of the Rat Brain, Plenum Press, New York and London (1967)], an electrode 0.7 mm in diameter, which was insulated except for 1 mm at the tip, was inserted bilaterally into the midbrain reticular formation (AP: 0, L: ±1.5, H: -3.0). A clip serving as the reference electrode was fixed on the temporal muscle. Through these electrodes, a high frequency electric current (100 KHz, 10 to 20 mA) was applied from a lesion generator (Glass Co., LM4A) for 2 to 3 minutes to cauterize electrically this brain region.
# The rat was then immediately set free from the stereotaxic apparatus. A polyethylene cannula was inserted into the duodenum and fixed with an acrylic resin (Aron Alfa, Sankyo Co., Ltd.). After completion of these operations, halothane anesthesia was immediately discontinued.
# After 1.5 hours, when the animal awoke from the anesthesia, the rat was fixed on an apparatus devised in our laboratory for a hind leg fixation. Both hind legs were fixed at the anterior part of the ankle joints. Both hindlimb paws were then pushed in 4 mm for 6 seconds in every minute. The resulting repulsive tension was drawn on a polygraph through a strain gauge.
# The test compounds were suspended in a 0.5% w/v CMC (carboxymethyl cellulose) aqueous solution and were administered orally (p.o.) or intraperitoneally (i.p.).
# The results are summarized in the following Table 7, where the compounds of the present invention are identified by the number of the foregoing Example in which each was prepared, Compound X is the known compound eperisone hydrochloride, and Compound Y is the known compound afloqualone.
# [4] = 100 mg/kg, administered as in Experiment 2
# [5] = 100 mg/kg, after administration
# [6] = Rattus norvegicus, ip, 50 mg/kg i.p., read-out: Maximum inhibition
# [7] = Rattus norvegicus, po, 30 mg/kg p.o., read-out: Maximum inhibition
# [8] = Rattus norvegicus, po, 50 mg/kg p.o., read-out: Maximum inhibition
# [9] = Rattus norvegicus, po, 100 mg/kg p.o., read-out: Maximum inhibition
# [10] = Rattus norvegicus, po, read-out: Maximum inhibition
structure (smiles),measurement,setting,value
O=c1c(Cl)c(-c2ccccc2)on1CC(O)CN1CCOCC1 (centres unmarked) [Compound 2a],Anesthesia time,thiopental anesthesia; 100 mg/kg p.o.,329.1 ± 81.2 s
same,"Drowsiness (the adverse effect), implied",thiopental anesthesia; compared with afloqualone,induce drowsiness (the adverse effect) less than afloqualone
same,"Prolongation of the duration of thiopental-induced anesthesia, in words",thiopental anesthesia; in comparison with eperisone hydrochloride,did not significantly prolong the duration of thiopental-induced anesthesia
same,Inhibition of decerebrate rigidity,"[1]; 100 mg/kg intraduodenal, 5 minutes after administration",About 30%
same,Inhibition of decerebrate rigidity,"[1]; 100 mg/kg intraduodenal, 1 hour after administration",about 65%
same,Duration of inhibitory effects,"[1]; 100 mg/kg intraduodenal, throughout the observation period",≥ 2 h
same,Side effects and duration of action compared with eperisone hydrochloride,[1]; compared with eperisone hydrochloride,weaker in side effects and of longer action than eperisone hydrochloride
same,Duration of the effect on spinal reflexes,spinal reflex in cats; 100 mg/kg,about 2 hours
same,Monosynaptic reflex,spinal reflex in cats; [4],little affected
same,Polysynaptic reflex,spinal reflex in cats; [4],remarkably inhibited
same,Spino-bulbo-spinal reflex,spinal reflex in cats; [4],remarkably inhibited
same,Onset of the effect on spinal reflexes,spinal reflex in cats; [5],5 min
same,Time of maximum effect on spinal reflexes,spinal reflex in cats; [5],30 min
same,Mechanism shown by spinal reflexes,spinal reflex in cats,interneuron blockers
same,"Onset time of convulsions and survival time, in words",[2],"prolonged onset time of convulsions, survival time significantly"
same,Duration of the effect,[3]; 30 mg/kg p.o.,> 90 min
same,Onset of the effect,[3]; 30 mg/kg p.o.,5 min
same,Duration of the effect,[3]; 50 mg/kg i.p.,> 120 min
same,Onset of the effect,[3]; 50 mg/kg i.p.,10 min
same,Duration of the effect,[3]; 50 mg/kg p.o.,> 90 min
same,Onset of the effect,[3]; 50 mg/kg p.o.,5 min
same,Duration of the effect,[3]; 100 mg/kg p.o.,> 90 min
same,Onset of the effect,[3]; 100 mg/kg p.o.,5 min
same,inhibition in vivo at 50 mg/kg,[3]; [6],50%
same,inhibition in vivo at 30 mg/kg,[3]; [7],55%
same,inhibition in vivo at 50 mg/kg,[3]; [8],90%
same,inhibition in vivo at 100 mg/kg,[3]; [9],100%
Cc1cc(=O)n(CC(O)CN2CCOCC2)o1 (centres unmarked) [Compound 3a],Duration of the effect,[3]; 50 mg/kg i.p.,50 min
same,Onset of the effect,[3]; 50 mg/kg i.p.,5 min
same,inhibition in vivo at 50 mg/kg,[3]; [6],30%
O=c1cc(-c2ccc(Cl)cc2)on1CC(O)CN1CCOCC1 (centres unmarked) [Compound 4a],Duration of the effect,[3]; 50 mg/kg i.p.,> 120 min
same,Onset of the effect,[3]; 50 mg/kg i.p.,5 min
same,inhibition in vivo at 50 mg/kg,[3]; [6],80%
CC(C)NCC(O)Cn1oc(-c2ccccc2)c(Cl)c1=O (centres unmarked) [Compound 5a],Duration of the effect,[3]; 50 mg/kg i.p.,> 120 min
same,Onset of the effect,[3]; 50 mg/kg i.p.,5 min
same,inhibition in vivo at 50 mg/kg,[3]; [6],95%
CC(C)NCC(O)Cn1oc(-c2ccccc2)cc1=O (centres unmarked) [Compound 6a],Duration of the effect,[3]; 50 mg/kg i.p.,60 min
same,Onset of the effect,[3]; 50 mg/kg i.p.,5 min
same,inhibition in vivo at 50 mg/kg,[3]; [6],30%
CC(C)NCC(O)Cn1oc(-c2ccc(Cl)cc2)cc1=O (centres unmarked) [Compound 7a],Duration of the effect,[3]; 50 mg/kg i.p.,60 min
same,Onset of the effect,[3]; 50 mg/kg i.p.,5 min
same,inhibition in vivo at 50 mg/kg,[3]; [6],75%
"CCc1ccc(C(=O)C(C)CN2CCCCC2)cc1 (centres unmarked) [Compound X, eperisone hydrochloride, reference compound]",Anesthesia time,thiopental anesthesia; 10 mg/kg p.o.,182.0 ± 9.8 s
same,Anesthesia time,thiopental anesthesia; 30 mg/kg p.o.,192.0 ± 18.3 s
same,Anesthesia time,thiopental anesthesia; 100 mg/kg p.o.,247.0 ± 34.9 s
same,"Inhibition of decerebrate rigidity, in words",[1]; 50 mg/kg intraduodenal,decerebrate rigidity was inhibited
same,"Side effects (vomiting, changes in blood pressure and heart beat)",[1]; 50 mg/kg intraduodenal,induced vomiting immediately after administration accompanied with abrupt changes in blood pressure and heart beat
same,Time after administration at which decerebrate rigidity returned,[1]; 50 mg/kg intraduodenal,30 min
same,Duration of the effect,[3]; 10 mg/kg p.o.,> 30 min
same,Onset of the effect,[3]; 10 mg/kg p.o.,10 min
same,Duration of the effect,[3]; 30 mg/kg p.o.,45 min
same,Onset of the effect,[3]; 30 mg/kg p.o.,10 min
same,Duration of the effect,[3]; 50 mg/kg p.o.,30 min
same,Onset of the effect,[3]; 50 mg/kg p.o.,10 min
same,Duration of the effect,[3]; 100 mg/kg p.o.,60 min
same,Onset of the effect,[3]; 100 mg/kg p.o.,5 min
same,inhibition in vivo at 10 mg/kg,"[3]; Rattus norvegicus, po, 10 mg/kg p.o., read-out: Maximum inhibition",30%
same,inhibition in vivo at 30 mg/kg,[3]; [7],30%
same,inhibition in vivo at 50 mg/kg,[3]; [8],50%
same,inhibition in vivo at 100 mg/kg,[3]; [9],50%
"Cc1ccccc1-n1c(CF)nc2ccc(N)cc2c1=O [Compound Y, afloqualone, reference compound]",Anesthesia time,thiopental anesthesia; 10 mg/kg p.o.,242.0 ± 10.0 s
same,"Prolongation of the duration of anesthesia, in words",thiopental anesthesia; 30 mg/kg,did significantly prolong the duration of anesthesia
same,Anesthesia time,thiopental anesthesia; 30 mg/kg p.o.,4657.0 ± 636.6 s
same,Duration of the effect,[3]; 5 mg/kg p.o.,60 min
same,Onset of the effect,[3]; 5 mg/kg p.o.,10 min
same,Duration of the effect,[3]; 10 mg/kg p.o.,45 min
same,Onset of the effect,[3]; 10 mg/kg p.o.,10 min
same,Duration of the effect,[3]; 30 mg/kg p.o.,120 min
same,Onset of the effect,[3]; 30 mg/kg p.o.,10 min
same,inhibition in vivo at 5 mg/kg,[3]; [10],25%
same,inhibition in vivo at 10 mg/kg,[3]; [10],55%
same,inhibition in vivo at 30 mg/kg,[3]; [10],70%
"Cc1c(-c2ccccc2)on(CC(O)CN2CCOCC2)c1=O.Cl (centres unmarked) [Example 2, 2-(2-Hydroxy-3-morpholinopropyl)-4-methyl-5-phenyl-3-isoxazolone hydrochloride]",Duration of the effect,[3]; 100 mg/kg i.p.,> 90 min
same,Onset of the effect,[3]; 100 mg/kg i.p.,5 min
same,inhibition in vivo at 100 mg/kg,"[3]; Rattus norvegicus, ip, 100 mg/kg i.p., read-out: Maximum inhibition",60%
"Cc1c(OCC(O)CN2CCOCC2)noc1-c1ccccc1 (centres unmarked) [Example 5, 3-(2-Hydroxy-3-morpholinopropoxy)-4-methyl-5-phenylisoxazole]",Duration of the effect,[3]; 100 mg/kg p.o.,> 90 min
same,Onset of the effect,[3]; 100 mg/kg p.o.,5 min
same,inhibition in vivo at 100 mg/kg,[3]; [9],70%
"NC(=O)OCC(O)Cn1oc2ccc(Cl)cc2c1=O (centres unmarked) [Example 15, 2-(3-Carbamoyloxy-2-hydroxypropyl)-5-chloro-1,2-benzisoxazol-3-one]",Duration of the effect,[3]; 50 mg/kg i.p.,> 60 min
same,Onset of the effect,[3]; 50 mg/kg i.p.,5 min
same,inhibition in vivo at 50 mg/kg,[3]; [6],50%
"NC(=O)OCC(O)COc1ccc(Cl)cc1 (centres unmarked) [chlorphenesin carbamate, reference compound]","Effect on spinal reflexes, compared with Compounds 1a and 2a",spinal reflex in cats; 100 mg/kg,A similar effect was observed
same,Mechanism shown by spinal reflexes,spinal reflex in cats,interneuron blockers
